From patent publication US11168093B2, “Thienopyridine inhibitors of RIPK2” (Celgene Corporation, priority 2018, dated 2021)

Biological target: RIPK2 enzyme (Homo sapiens (Human), UniProt O43353)
Assay: RIPK2 inhibition assay, TR-FRET LanthaScreen Tracer 199 screening assay
Format: binding
Conditions: 5 nM RIPK2 enzyme, Tracer 199 at 50 nM, Eu-anti-His Antibody at 2 nM, 1 hour incubation
Method: All data was collected using a standard TR-FRET screening assay: LanthaScreen Tracer 199 at 50 nM, Eu-anti-His Antibody at 2 nM, 5 nM RIPK2 enzyme, and 1× Kinase Reaction Buffer. There was a 1 hour incubation prior to read. TR-FRET signal of the interaction (340Ex/665Em/615Em) was read at room temperature with standard setting. Background was subtracted of wells containing no enzyme. Percent inhibition was based on uninhibited controls log (inhibitor) vs. response. Variable slope equation was used with no constraints: Log Y=Bottom+(Top−Bottom)/(1+10^((Log IC50−X)*Hill Slope)).
The compound numbers correspond to the compound numbers above.

RIPK2 enzyme, sequence (O43353 whole entry): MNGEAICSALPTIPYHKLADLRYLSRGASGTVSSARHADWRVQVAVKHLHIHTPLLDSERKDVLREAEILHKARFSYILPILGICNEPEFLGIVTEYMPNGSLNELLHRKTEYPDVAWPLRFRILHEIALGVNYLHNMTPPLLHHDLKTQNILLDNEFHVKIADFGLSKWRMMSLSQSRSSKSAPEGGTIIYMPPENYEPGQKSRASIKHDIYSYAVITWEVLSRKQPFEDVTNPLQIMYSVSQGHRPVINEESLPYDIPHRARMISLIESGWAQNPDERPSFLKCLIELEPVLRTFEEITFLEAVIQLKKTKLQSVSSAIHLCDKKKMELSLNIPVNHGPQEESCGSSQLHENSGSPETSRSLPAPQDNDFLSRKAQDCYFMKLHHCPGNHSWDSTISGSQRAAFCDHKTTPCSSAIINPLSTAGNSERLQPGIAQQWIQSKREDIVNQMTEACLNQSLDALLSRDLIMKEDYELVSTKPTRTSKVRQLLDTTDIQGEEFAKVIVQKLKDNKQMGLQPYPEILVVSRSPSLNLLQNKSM

CC1NCCCCC1c1cc2c(Nc3c(F)cc4scnc4c3F)ccnc2s1 (single isomer, unassigned) [Example 118d, 4,6-difluoro-N-(2-(2-methylazepan-3-yl)thieno[2,3-b]pyridin-4-yl)benzo[d]thiazol-5-amine] was tested, and the IC50 was 10 to 20 nM.

CC1NCCCC1c1cc2c(Nc3ccc4scnc4c3)c(F)cnc2s1 (single isomer, unassigned) [Example 119b, N-(5-fluoro-2-(2-methylpiperidin-3-yl)thieno[2,3-b]pyridin-4-yl)benzo[d]thiazol-5-amine] showed an IC50 of no more than 10 nM.

In the case of CC1NCCCC1c1cc2c(Nc3ccc4scnc4c3)c(F)cnc2s1 (single isomer, unassigned) [Example 119c, N-(5-fluoro-2-(2-methylpiperidin-3-yl)thieno[2,3-b]pyridin-4-yl)benzo[d]thiazol-5-amine], the IC50 is reported as no more than 10 nM.

CC1NCCCC1c1cc2c(Nc3ccc4scnc4c3)c(F)cnc2s1 (single isomer, unassigned) [Example 119d, N-(5-fluoro-2-(2-methylpiperidin-3-yl)thieno[2,3-b]pyridin-4-yl)benzo[d]thiazol-5-amine] was tested, and the IC50 was no less than 50 nM.

Work on CC1C(c2cc3c(Nc4ccc5scnc5c4)c(F)cnc3s2)CCCN1C (single isomer, unassigned) [Example 120a, N-(2-(1,2-dimethylpiperidin-3-yl)-5-fluorothieno[2,3-b]pyridin-4-yl)benzo[d]-thiazol-5-amine] yielded an IC50 of 20 to 50 nM.

CC1C(c2cc3c(Nc4ccc5scnc5c4)c(F)cnc3s2)CCCN1C (single isomer, unassigned) [Example 120b, N-(2-(1,2-dimethylpiperidin-3-yl)-5-fluorothieno[2,3-b]pyridin-4-yl)benzo[d]-thiazol-5-amine] gave an IC50 of no more than 10 nM.

For CC1C(c2cc3c(Nc4ccc5scnc5c4)c(F)cnc3s2)CCCN1C (single isomer, unassigned) [Example 120c, N-(2-(1,2-dimethylpiperidin-3-yl)-5-fluorothieno[2,3-b]pyridin-4-yl)benzo[d]-thiazol-5-amine], the IC50 was no more than 10 nM.

For CC1C(c2cc3c(Nc4ccc5scnc5c4)c(F)cnc3s2)CCCN1C (single isomer, unassigned) [Example 120d, N-(2-(1,2-dimethylpiperidin-3-yl)-5-fluorothieno[2,3-b]pyridin-4-yl)benzo[d]-thiazol-5-amine], the IC50 was no less than 50 nM.

With CC1NCCCC1c1cc2c(Nc3cc4ncsc4cc3F)c(F)cnc2s1 (single isomer, unassigned) [Example 122b, 6-fluoro-N-(5-fluoro-2-(2-methylpiperidin-3-yl)thieno[2,3-b]pyridin-4-yl) benzo[d]thiazol-5-amine] the IC50 was 20 to 50 nM.

Compound CC1NCCCC1c1cc2c(Nc3cc4ncsc4cc3F)c(F)cnc2s1 (single isomer, unassigned) [Example 122c, 6-fluoro-N-(5-fluoro-2-(2-methylpiperidin-3-yl)thieno[2,3-b]pyridin-4-yl) benzo[d]thiazol-5-amine] has an IC50 of 10 to 20 nM.

CC1C(c2cc3c(Nc4cc5ncsc5cc4F)c(F)cnc3s2)CCCN1C (single isomer, unassigned) [Example 123d, N-(2-(1,2-dimethylpiperidin-3-yl)-5-fluorothieno[2,3-b]pyridin-4-yl)-6-fluorobenzo[d]thiazol-5-amine] was tested, and the IC50 was 20 to 50 nM.

For CC1NCCCC1c1cc2c(Nc3ccc4scnc4c3F)c(F)cnc2s1 (single isomer, unassigned) [Example 124a, 4-fluoro-N-(5-fluoro-2-(2-methylpiperidin-3-yl)thieno[2,3-b]pyridin-4-yl)benzo[d]thiazol-5-amine], the IC50 was no less than 50 nM.

With CC1NCCCC1c1cc2c(Nc3ccc4scnc4c3F)c(F)cnc2s1 (single isomer, unassigned) [Example 124b, 4-fluoro-N-(5-fluoro-2-(2-methylpiperidin-3-yl)thieno[2,3-b]pyridin-4-yl)benzo[d]thiazol-5-amine] the IC50 was no more than 10 nM.
